The target of experiment [1] is T1, muscarinic M2 receptor (Cavia porcellus, UniProt H0VRN8).
T1 construct: left atria were excised to prepare tissue specimens; from tissue; host or cells: isolated guinea pig left atrium (male Hartley)
T1 sequence (H0VRN8 1-466): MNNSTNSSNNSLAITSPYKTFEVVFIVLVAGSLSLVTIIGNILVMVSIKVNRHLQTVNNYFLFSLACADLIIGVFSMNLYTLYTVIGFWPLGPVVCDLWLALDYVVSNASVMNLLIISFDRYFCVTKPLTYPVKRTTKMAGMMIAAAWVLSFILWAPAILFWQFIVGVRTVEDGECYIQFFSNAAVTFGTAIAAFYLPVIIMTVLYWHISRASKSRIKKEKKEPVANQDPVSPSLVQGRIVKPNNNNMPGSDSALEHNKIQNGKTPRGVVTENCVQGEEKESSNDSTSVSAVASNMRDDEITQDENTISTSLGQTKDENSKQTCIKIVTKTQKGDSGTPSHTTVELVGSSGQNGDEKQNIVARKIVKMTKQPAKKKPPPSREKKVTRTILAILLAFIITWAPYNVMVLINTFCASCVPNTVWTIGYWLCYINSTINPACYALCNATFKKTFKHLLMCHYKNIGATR
As to the kind of experiment: Muscarinic M2 antagonistic action in isolated guinea pig left atrium (carbachol-induced relaxation, Schild method). The class given is cell-based. As to conditions: compound applied 30 minutes before carbachol. The protocol:
Muscarinic M2 Antagonistic Action in Isolated Guinea Pig Left Atrium […] Each tissue specimen was kept warm at 37° C., suspended with a resting tension of 0.5 g in a 5-mL Magnus bath filled with a Krebs carbonate buffer bubbled with 95% O2/5% CO2. Then, contraction evoked by field electrical stimulation (4 Hz, 2 msec, 1.5×threshold potential) was measured. After a stabilization period of 60 minutes, carbachol-induced relaxation was isometrically measured and recorded by the cumulative method from 10^−8 M with an interval of 90 seconds for one concentration in an equal ratio of 3. After the measurement, the tissue specimen was immediately washed, and left for 45 minutes as a stabilization period before the next observation. The tissue specimen of which EC50 for the carbachol-induced relaxation was stabilized was considered as a control. Each test compound was applied 30 minutes before the addition of carbachol. The affinity (pA2) of the test compound was obtained in the same manner as in the case of the trachea.

Experiment [2] concerns Bronchoconstriction in Guinea Pigs (induced with acetylcholine). Briefly: Effect on bronchoconstriction in guinea pigs (via inhalation administration), Konzett method. Format: in vivo. As to conditions: Cavia porcellus, iv; guinea pig, intratracheal administration 10 μL g/head, 24 hours after administration, acetylcholine 4 μg/kg i.v., versus control group; read-out: Percent of inhibition of bronchoconstriction (%). The protocol:
Effect on Bronchoconstriction in Guinea Pigs (Via Inhalation Administration)
The test was performed according to the method of Konzett et al. (Arch. Exp. Path Pharmak., 1940, 195, 71-74). Male Hartley guinea pigs (350 to 600 g) were anesthetized with urethane (1.8 g/kg, i.p.), and then a cannula for drug administration was inserted into each left jugular vein. After the immobilization with decamethonium (2 mg/kg, i.v.), a tracheal cannula was inserted, and controlled respiration was attained by a respirator (Harvard). Bronchoconstriction was measured as changes of airway pressure with a pressure transducer (Nihon Kohden Corp.). Each test compound was administered (10 μL g/head) from dissected trachea by using a device for intratracheal administration of liquid for guinea pigs (Penn Century), and after suture, the animals were returned to usual breeding. After 24 hours, acetylcholine (4 μg/kg, i.v.) was administered to induce bronchoconstriction, and inhibitory activity on bronchoconstriction was calculated as percent inhibition comparing to the change of airway pressure in control group was obtained.

Experiment [3] has as its target T2, muscarinic M3 receptor (Cavia porcellus, UniProt H0W1Z3).
T2 construct: trachea was excised, and cut at every two tracheal cartilages to prepare tissue specimens; from tissue; host or cells: isolated guinea pig trachea (male Hartley)
As to the kind of experiment: Muscarinic M3 antagonistic action in isolated guinea pig trachea (carbachol-induced contraction, Schild method). The class given is cell-based. As to conditions: compound applied 15 minutes before carbachol. The method, then:
Muscarinic M3 Antagonistic Action in Isolated Guinea Pig Trachea
Male Hartley guinea pigs (350 to 600 g) were sacrificed by bleeding, and trachea was excised, and cut at every two tracheal cartilages to prepare tissue specimens. Each tissue specimen was kept warm at 37° C., suspended with a resting tension of 1 g in a 5-mL Magnus bath filled with a Krebs carbonate buffer containing indomethacin (1 μM) bubbled with 95% O2/5% CO2, and left for 60 minutes as a stabilization period. […] After the measurement, the tissue specimen was immediately washed, and left for 60 minutes as a stabilization period before the next contraction reaction, and the tissue specimen of which EC50 for the carbachol-induced contraction reaction was stabilized was considered as a control. Each test compound was applied 15 minutes before the addition of carbachol. The affinity (pA2) of the test compound was obtained by the Schild method (Arunlakshana, O. and Schild, H. O., Brit. J. Pharmacol., 1959, 14, 48-58).

Where [4] appears, read: pA2 Left atrium M2, isolated guinea pig left atrium.
[5] abbreviates: pA2 Trachea M3, isolated guinea pig trachea.
[6] abbreviates: isolated guinea pig left atrium, read-out: pA2 Left atrium M2 (converted).
Where [7] appears, read: isolated guinea pig trachea, read-out: pA2 Trachea M3 (converted).

Where two headings read alike, the source gives them in different places.

T2 sequence (H0W1Z3 1-590): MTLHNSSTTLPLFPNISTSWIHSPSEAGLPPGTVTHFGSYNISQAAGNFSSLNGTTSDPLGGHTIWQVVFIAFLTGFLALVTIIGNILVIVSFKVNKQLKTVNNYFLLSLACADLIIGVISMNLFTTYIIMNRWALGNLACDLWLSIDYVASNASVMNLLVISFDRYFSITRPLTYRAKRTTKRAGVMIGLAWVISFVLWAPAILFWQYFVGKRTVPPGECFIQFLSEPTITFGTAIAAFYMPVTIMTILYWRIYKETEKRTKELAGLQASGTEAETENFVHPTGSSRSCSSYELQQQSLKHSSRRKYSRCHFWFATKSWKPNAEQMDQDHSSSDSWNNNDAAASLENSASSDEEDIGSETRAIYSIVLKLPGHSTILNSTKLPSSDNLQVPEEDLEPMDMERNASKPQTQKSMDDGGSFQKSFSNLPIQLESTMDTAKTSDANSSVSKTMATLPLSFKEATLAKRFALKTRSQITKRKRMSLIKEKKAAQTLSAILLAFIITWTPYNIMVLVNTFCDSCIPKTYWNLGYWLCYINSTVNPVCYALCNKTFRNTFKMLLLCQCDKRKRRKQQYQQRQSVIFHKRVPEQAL

`C[n+]1ccn([C@H]2CC[C@H](C(C(N)=O)(c3ccccc3)c3ccccc3)C2)c1` (relative stereo) [Example 59, 3-(trans-3-(Carbamoyl(diphenyl)methyl)cyclopentyl)-1-methyl-3H-imidazol-1-ium iodide]: the Kb is 20 nM in experiment [1] (setting [4]) and 0.794 nM in experiment [3] (setting [5]). For the same compound, in experiment [2], the inhibition in vivo at 0.01 mg is 90%.
For `Cc1nccn1[C@@H]1CC[C@H](C(C(N)=O)(c2ccccc2)c2ccccc2)C1` (relative stereo) [Reference Example 5, 2-(cis-3-(2-Methylimidazol-1-yl)cyclopentyl)-2,2-diphenylacetamide, reference compound], the Kb in experiment [1] (setting [6]) was 50.1 nM; in experiment [3] (setting [7]), 0.794 nM. The inhibition in vivo at 0.01 mg in experiment [2] was determined as 0%.
The corresponding values for `CC1=NCCN1[C@@H]1CC[C@H](C(C(N)=O)(c2ccccc2)c2ccccc2)C1` (relative stereo) [Reference Example 13, 2-(cis-3-(2-Methyl-4,5-dihydroimidazol-1-yl)cyclopentyl)-2,2-diphenylacetamide, reference compound] are 79.4 nM, 5.01 nM and 20%.
On to `CC1=[N+](C)CCN1[C@@H]1CC[C@H](C(C(N)=O)(c2ccccc2)c2ccccc2)C1` [Example 60, 3-((1R,3S)-3-(Carbamoyl(diphenyl)methyl)cyclopentyl)-1,2-dimethyl-4,5-dihydro-3H-imidazol-1-ium para-toluenesulfonate], for which the Kb in experiment [1] (setting [6]) is 15.8 nM; in experiment [3] (setting [7]), 0.631 nM. For the same compound, in experiment [2], the inhibition in vivo at 0.01 mg came out at 90%.
Turning to `COCC[n+]1ccn([C@@H]2CC[C@H](C(C(N)=O)(c3ccccc3)c3ccccc3)C2)c1C` [Example 63, 3-((1R,3S)-3-(Carbamoyl(diphenyl)methyl)cyclopentyl)-1-(2-methoxyethyl)-2-methyl-3H-imidazol-1-ium bromide], the Kb was 7.94 nM in experiment [1] (setting [4]) and 0.316 nM in experiment [3] (setting [5]). In experiment [2], the inhibition in vivo at 0.01 mg came to 100%.
As for `Cc1n([C@H]2CC[C@@H](C(C(N)=O)(c3ccccc3)c3ccccc3)C2)cc[n+]1Cc1ccccc1` [Example 83, 3-((1S,3R)-3-(Carbamoyl(diphenyl)methyl)cyclopentyl)-1-benzyl-2-methyl-3H-imidazol-1-ium bromide], the Kb in experiment [1] (setting [6]) is 5.01 nM; in experiment [3] (setting [7]), 0.0794 nM. For the same compound, the inhibition in vivo at 0.01 mg in experiment [2] was found to be 100%.
On to `CC(=O)C[n+]1ccn([C@@H]2CC[C@H](C(C(N)=O)(c3ccccc3)c3ccccc3)C2)c1C` [Example 90, 3-((1R,3S)-3-(Carbamoyl(diphenyl)methyl)cyclopentyl)-2-methyl-1-(2-oxopropyl)-3H-imidazol-1-ium bromide], for which the Kb in experiment [1] (setting [4]) was 316 nM; in experiment [3] (setting [5]), 0.794 nM. For the same compound, the inhibition in vivo at 0.01 mg in experiment [2] was determined as 100%.
Take `Cc1n([C@@H]2CC[C@H](C(C(N)=O)(c3ccccc3)c3ccccc3)C2)cc[n+]1Cc1ccccc1` [Example 91, 3-((1R,3S)-3-(Carbamoyl(diphenyl)methyl)cyclopentyl)-1-benzyl-2-methyl-3H-imidazol-1-ium bromide]: the Kb in experiment [1] (setting [4]) is 3.98 nM; in experiment [3] (setting [5]) it was 0.1 nM. Moreover, the inhibition in vivo at 0.01 mg in experiment [2] is 100%.

These data come from US20100152261A1 (MITSUBISHI TANABE PHARMA CORPORATION, priority 2005, published 2010).
